Measured values reported in patent publication US8119681B2, “2-[1-phenyl-5-hydroxy or methoxy-4alpha-methyl-hexahydrocyclopenta [ƒ]indazole-5-YL]ethyl phenyl derivatives as glucocorticoid receptor ligands” (Merck Sharp & Dohme Corp., priority 2006, dated 2012).

Key:
human GR [1] = target: T1, human GR (Homo sapiens, UniProt P04150); assay: Trans-Activation Modulation of Glucocorticoid Receptor (GRAMMER), MMTV-LUC reporter gene; assay type: cell-based; set-up: endogenous in cells; settings: for Emax: A549; for EC50: A549 cells, IP = inflection point
T1 sequence (P04150 1-777): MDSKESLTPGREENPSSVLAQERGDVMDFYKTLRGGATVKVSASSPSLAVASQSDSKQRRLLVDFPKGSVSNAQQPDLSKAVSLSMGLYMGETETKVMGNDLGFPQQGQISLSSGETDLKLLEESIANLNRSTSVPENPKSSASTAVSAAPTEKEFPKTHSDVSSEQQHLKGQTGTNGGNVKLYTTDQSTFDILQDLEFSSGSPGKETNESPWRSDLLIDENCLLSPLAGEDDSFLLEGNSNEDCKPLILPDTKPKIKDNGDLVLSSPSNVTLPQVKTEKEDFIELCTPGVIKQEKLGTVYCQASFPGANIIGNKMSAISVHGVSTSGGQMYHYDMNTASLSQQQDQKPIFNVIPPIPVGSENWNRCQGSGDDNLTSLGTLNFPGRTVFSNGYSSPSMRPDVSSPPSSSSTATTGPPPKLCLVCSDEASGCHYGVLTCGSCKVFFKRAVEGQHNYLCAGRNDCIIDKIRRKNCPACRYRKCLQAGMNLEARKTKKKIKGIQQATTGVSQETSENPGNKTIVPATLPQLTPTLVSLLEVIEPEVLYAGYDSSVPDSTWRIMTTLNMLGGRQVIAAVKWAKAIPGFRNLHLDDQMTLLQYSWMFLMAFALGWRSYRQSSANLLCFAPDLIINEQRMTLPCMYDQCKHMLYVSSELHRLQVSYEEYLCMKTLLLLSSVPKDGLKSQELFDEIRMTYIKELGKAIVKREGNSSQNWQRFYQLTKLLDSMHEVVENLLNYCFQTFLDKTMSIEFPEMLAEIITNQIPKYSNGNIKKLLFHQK
Description: Trans-Activation Modulation of Glucocorticoid Receptor (GRAMMER)
This assay assesses the ability of test compounds to control transcription from the MMTV-LUC reporter gene in lung adenocarcinoma A549 cells or HeLa cells, a human […] cell line that naturally expresses the human GR. The assay measures induction of a modified MMTV LTR/promoter linked to the LUC reporter gene.
The routine transient assay consists of plating 7,000-25,000 cells/well of a white, clear-bottom 96-well plate. Alternatively, 384-well plates can be used at a cell concentration of 10,000/well. The media that the cells are plated in is “exponential growth medium” which consists of phenol red-free RPMI1640 containing 10% FBS, 4 mM L-glutamine, 20 mM HEPES, 10 ug/mL human insulin, and 20 ug/mL gentamicin. Incubator conditions are 37° C. and 5% CO2. The transfection is done in batch mode. The cells are trypsinized and counted to the right cell number in the proper amount of fresh media. It is then gently mixed with the FuGene6/DNA mix and plated onto the 96 or 384-well plate, all the wells receive 100 uL or 40 uL, respectively, of medium+lipid/DNA complex then incubated 37° C. overnight. The transfection cocktail consists of serum-free OptiMEM, FuGene6 reagent and DNA. The manufacturer's (Roche Biochemical) protocol for cocktail setup is as follows: The lipid to DNA ratio is approximately 2.5:1 and the incubation time is 20 min at room temperature. Sixteen to 24 hours after transfection, the cells are treated with dexamethasone to a final concentration of 10 nM as well as the compound of interest, such that final DMSO (vehicle) concentration is equal to or less than 1%. Each plate also contains samples that are treated with 10 nM dexamethasone alone, which is used as the 100% activity control. The cells are exposed to the compounds for 24 hours. After 24 hours, the cells are lysed by a Promega cell culture lysis buffer for approximately 30 min and then the luciferase activity in the extracts is assayed in the 96-well format luminometer. In 384-well format, Steady-Glo (Promega) or Steady-Lite (PerkinElmer) can be used by adding an equal volume of reagent to the media present in each well. Activity induced by 10 nM dexamethasone alone is set at 100% activity. Antagonist activity is calculated by determining the decrease in dexamethasone-induced activity in response to compound treatment relative to samples that were treated with dexamethasone alone. […] This transactivation assay can be performed in an agonist and antagonist mode to identify these different activities. […]

human GR [2] = target: T1, human GR; assay: Transrepression Assay (GITAR), TNFα-β-lactamase reporter gene in U937 cells; assay type: cell-based; set-up: U937 cells contain an endogenous glucocorticoid receptor (GR); endogenous in cells; host or cells: U937 cells stably transfected with the TNF-α promoter/β-lactamase reporter only; settings: for EC50: IP = inflection point; for GITAR > GRAMM % SEP: separation of GITAR Emax over GRAMMER Emax; for Emax: U-937
In short: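 Reporter readout used CCF2-AM loading for 70–90 min at room temperature after overnight (~18 h, 37 °C) PMA (5 ng/ml final) and LPS (100 ng/ml final) stimulation of compound-treated (30–45 min) TNFα-β-lactamase U937 cells expressing native GR. Activity was normalised to 100 nM dexamethasone repression.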

[3] = read-out: Transactivation A549 Cells GRAMMER Emax (%)
[4] = Table 1, read-out: Transactivation A549 Cells GRAMMER IP
[5] = Table 1, U937 cells, read-out: Transrepression U937 Cells GITAR IP
[6] = 100 nM dexamethasone = 100% activity, read-out: maximal activity in the transrepression assay
[7] = Table 1, U937 cells, activity repressed by 100 nM dexamethasone = 100%, read-out: Transrepression U937 Cells GITAR Emax (%)

Row | Emax (human GR [1]; [3]) [%] | EC50 (human GR [1]; [4]) [nM] | EC50 (human GR [2]; [5]) [nM] | GITAR > GRAMM % SEP (human GR [2]; Table 1) [%] | Emax (human GR [2]; [6]) [%] | Emax (human GR [2]; [7]) [%] | Emax (human GR [1]; read-out: Transactiviation A549 Cells GRAMMER Emax (%)) [%] | EC50 (human GR [1]; Table 2, read-out: Transactiviation A549 Cells GRAMMER IP) [nM] | EC50 (human GR [2]; Table 2, U937 cells, read-out: Transactiviation U937 Cells GITAR IP) [nM] | GITAR > GRAMM % SEP (human GR [2]; Table 2) [%] | Emax (human GR [2]; Table 2, U937 cells, activity repressed by 100 nM dexamethasone = 100%, read-out: Transactiviation U937 Cells GITAR Emax (%)) [%] | Structure (SMILES)
1 | 38 | 264 | 210 | 29 | 5 to 100 | 67 | – | – | – | – | – | CC(O)(C(N)=O)c1ccccc1CC[C@]1(O)CCC2=Cc3c(cnn3-c3ccc(F)cc3)C[C@@]21C (single isomer, unassigned) [Example 150]
2 | 20 | 253 | 287 | 20 | 5 to 100 | 40 | – | – | – | – | – | CC(C(N)=O)c1ccccc1CC[C@]1(O)CCC2=Cc3c(cnn3-c3ccc(F)cc3)C[C@@]21C (single isomer, unassigned) [Example 196]
3 | 29 | 187 | 197 | 23 | 5 to 100 | 52 | – | – | – | – | – | C[C@]12Cc3cnn(-c4ccc(F)cc4)c3C=C1CC[C@@]2(O)CCc1ccccc1C(F)C(N)=O (single isomer, unassigned) [Example 198]
4 | – | – | – | – | – | – | 73 | 230 | 204 | 5 | 78 | C[C@]12Cc3cnn(-c4ccc(F)cc4)c3C=C1CC[C@@]2(O)CCc1ccccc1 [Example 2 WO 2004/075840 A2, reference compound]
5 | 51 | 39 | 88 | 14 | 5 to 100 | 65 | – | – | – | – | – | CCNC(=O)c1ccccc1CC[C@]1(O)CCC2=Cc3c(cnn3-c3ccc(F)cc3)C[C@@]21C [Example 2, N-ethyl-2-{2-[(4αS,5R)-1-(4-fluorophenyl)-5-hydroxy-4α-methyl-1,4,4α,5,6,7-hexahydrocyclopenta[f]indazol-5-yl]ethyl}benzamide]
6 | 40 | 138 | 179 | – | 5 to 100 | 64 | – | – | – | – | – | C[C@]12Cc3cnn(-c4ccc(F)cc4)c3C=C1CC[C@@]2(O)CCc1ccccc1CNS(=O)(=O)C1CC1 [Example 5, N-(2-{2-[(4αS,5R)-1-(4-fluorophenyl)-5-hydroxy-4α-methyl-1,4,4α,5,6,7-hexahydrocyclopenta[f]indazol-5-yl]ethyl}benzyl)cyclopropanesulfonamide]
7 | 39 | 290 | 208 | 17 | 5 to 100 | 57 | – | – | – | – | – | C[C@]12Cc3cnn(-c4ccc(F)cc4)c3C=C1CC[C@@]2(O)CCc1ccccc1N1CCC1=O [Example 11, 1-(2-{2-[(4αS,5R)-1-(4-fluorophenyl)-5-hydroxy-4α-methyl-1,4,4α,5,6,7-hexahydrocyclopenta[f]indazol-5-yl]ethyl}phenyl)azetidin-2-one]
8 | 55 | 175 | 193 | 23 | 5 to 100 | 79 | – | – | – | – | – | CC(=O)Nc1ccccc1CC[C@]1(O)CCC2=Cc3c(cnn3-c3ccc(F)cc3)C[C@@]21C [Example 14, N-(2-{2-[(4αS,5R)-1-(4-fluorophenyl)-5-hydroxy-4α-methyl-1,4,4α,5,6,7-hexahydrocyclopenta[f]indazol-5-yl]ethyl}phenyl)acetamide]
9 | 43 | 236 | 242 | 36 | 5 to 100 | 79 | – | – | – | – | – | C[C@]12Cc3cnn(-c4ccc(F)cc4)c3C=C1CC[C@@]2(O)CCc1ccccc1NS(=O)(=O)C1CC1 [Example 15, N-(2-{2-[(4αS,5R)-1-(4-fluorophenyl)-5-hydroxy-4α-methyl-1,4,4α,5,6,7-hexahydrocyclopenta[f]indazol-5-yl]ethyl}phenyl)cyclopropanesulfonamide]
10 | 46 | 127 | 187 | 33 | 5 to 100 | 79 | – | – | – | – | – | C[C@]12Cc3cnn(-c4ccc(F)cc4)c3C=C1CC[C@@]2(O)CCc1ccccc1S(C)(=O)=O [Example 19, (4αS,5R)-1-(4-fluorophenyl)-4α-methyl-5-{2-[2-(methylsulfonyl)phenyl]ethyl}-1,4,4α,5,6,7-hexahydrocyclopenta[f]indazol-5-ol]
